Source: ChEMBL document CHEMBL4382203, “Discovery, cocrystallization and biological evaluation of novel piperidine derivatives as high affinity Ls-AChBP ligands possessing α7 nAChR activities” (Eur J Med Chem, 2018)
The source made the active and inactive calls. No cut-off for these calls is given here.

Tests used:
[1] = molecular target: Acetylcholine-binding protein (Lymnaea stagnalis, UniProt P58154); test: Displacement of [3H]epibatidine from Lymnaea stagnalis acetylcholine-binding protein incubated for 60 mins followed by 3 hrs incubation in dark condition by microbeta counting analysis
[2] = molecular target: T1, Neuronal acetylcholine receptor subunit alpha-7 (Homo sapiens, UniProt P36544); test: Partial agonist activity at human alpha7 nAChR at 100 uM at -60 mV holding potential incubated for 1 sec followed by 60 secs compound washout relative to acetylcholine
[3] = molecular target: Acetylcholine-binding protein (Lymnaea stagnalis) (UniProt P58154); test: Displacement of [3H]epibatidine from Lymnaea stagnalis acetylcholine-binding protein at 100 nM incubated for 60 mins followed by 3 hrs incubation in dark condition by microbeta counting analysis relative to control
[4] = molecular target: T1, Neuronal acetylcholine receptor subunit alpha-7; test: Antagonist activity at human alpha7 nAChR assessed as inhibition of acetylcholine-induced response at 100 uM at -60 mV holding potential incubated for 30 secs followed by acetylcholine addition and subsequent compound washout for 30 secs relative to acetylcholine
[5] = molecular target: T1, Neuronal acetylcholine receptor subunit alpha-7; test: Antagonist activity at human alpha7 nAChR assessed as inhibition of acetylcholine-induced response at 1 uM at -60 mV holding potential incubated for 30 secs followed by acetylcholine addition and subsequent compound washout for 30 secs relative to acetylcholine
[6] = molecular target: T1, Neuronal acetylcholine receptor subunit alpha-7; test: Partial agonist activity at human alpha7 nAChR expressed in Xenopus laevis oocytes by voltage clamp electrophysiological method; type: cell-based
[7] = molecular target: Neuronal acetylcholine receptor; alpha4/beta2 (Homo sapiens) (UniProt P17787+P43681); test: Agonist activity at alpha4beta2 nAChR (unknown origin) at -60 mV holding potential incubated for 1 sec followed by 60 secs compound washout; type: protein-complex assay
[8] = AUC (0 to infinity) in ICR mouse at 10 mg/kg, po; type: ADME, organism-based; set-up: dose 10 mg/kg, time infinity, route oral; details: in vivo
[9] = Ratio of drug level in blood to plasma in ICR mouse at 10 mg/kg, po after 4 hrs; type: ADME, organism-based; details: blood and plasma
[10] = Tmax in ICR mouse at 2 mg/kg, iv; type: ADME, organism-based; details: in vivo
[11] = Half life in ICR mouse at 2 mg/kg, iv; type: ADME, organism-based; details: in vivo
[12] = Cmax in ICR mouse at 10 mg/kg, po; type: ADME, organism-based; set-up: dose 10 mg/kg, route oral; details: in vivo
[13] = Clearance in ICR mouse at 2 mg/kg, iv; type: ADME, organism-based; details: in vivo
[14] = AUC (0 to infinity) in ICR mouse at 2 mg/kg, iv; type: ADME, organism-based; set-up: dose 2 mg/kg, route intravenous, time infinity; details: in vivo
[15] = Apparent volume of distribution in ICR mouse at 2 mg/kg, iv; type: ADME, organism-based; details: in vivo, read-out: Vz
[16] = Cmax in ICR mouse at 2 mg/kg, iv; type: ADME, organism-based; set-up: dose 2 mg/kg, route intravenous; details: in vivo
[17] = Oral bioavailability in ICR mouse at 10 mg/kg; type: ADME, organism-based; details: in vivo
[18] = Half life in ICR mouse at 10 mg/kg, po; type: ADME, organism-based; details: in vivo
[19] = Tmax in ICR mouse at 10 mg/kg, po; type: ADME, organism-based; details: in vivo
[20] = Ratio of drug level in blood to plasma in ICR mouse at 2 mg/kg, iv after 4 hrs; type: ADME, organism-based; details: blood and plasma
[21] = molecular target: T1, Neuronal acetylcholine receptor subunit alpha-7; test: Partial agonist activity at human alpha7 nAChR at -60 mV holding potential incubated for 1 sec followed by 60 secs compound washout
[22] = molecular target: T1, Neuronal acetylcholine receptor subunit alpha-7; test: Partial agonist activity at human alpha7 nAChR expressed in Xenopus laevis oocytes at holding potential of -90 mV by patch clamp electrophysiological method; type: cell-based

Chain of Acetylcholine-binding protein (P58154 whole entry): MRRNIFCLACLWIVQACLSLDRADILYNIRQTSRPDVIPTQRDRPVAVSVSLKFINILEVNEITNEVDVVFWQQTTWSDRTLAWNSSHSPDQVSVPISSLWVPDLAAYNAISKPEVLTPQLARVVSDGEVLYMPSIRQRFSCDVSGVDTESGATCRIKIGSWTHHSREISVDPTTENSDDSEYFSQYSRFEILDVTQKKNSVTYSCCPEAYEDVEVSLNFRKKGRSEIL
Chain of Acetylcholine-binding protein (Lymnaea stagnalis) (P58154 whole entry): as above
T1 sequence (P36544 whole entry): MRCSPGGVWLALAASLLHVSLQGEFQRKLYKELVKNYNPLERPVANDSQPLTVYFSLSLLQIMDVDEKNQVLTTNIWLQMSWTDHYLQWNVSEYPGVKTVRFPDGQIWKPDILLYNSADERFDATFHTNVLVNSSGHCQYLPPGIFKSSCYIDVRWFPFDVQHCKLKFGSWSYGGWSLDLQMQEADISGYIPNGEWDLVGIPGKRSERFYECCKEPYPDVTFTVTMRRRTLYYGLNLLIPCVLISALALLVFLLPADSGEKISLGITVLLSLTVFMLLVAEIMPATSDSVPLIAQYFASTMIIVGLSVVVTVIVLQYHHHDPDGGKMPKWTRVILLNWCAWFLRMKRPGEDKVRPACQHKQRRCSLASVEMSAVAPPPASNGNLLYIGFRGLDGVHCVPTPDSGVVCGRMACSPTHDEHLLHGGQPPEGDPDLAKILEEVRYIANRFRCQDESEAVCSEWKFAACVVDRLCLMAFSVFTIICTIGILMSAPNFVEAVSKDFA

SMILES	Ki [1]	Efficacy [2]	other results
Clc1cccc(CC2(COc3ccncc3)CCCNC2)c1 (centres undefined)	16.5 nM		
FC(F)(F)c1ccccc1CC1(COc2cccnc2)CCCNC1 (centres undefined)	17.2 nM	13.5%	
Clc1ccccc1CC1(COc2cccnc2)CCCNC1 (centres undefined)	13 nM	16.8%	
Clc1cccc(CC2(COc3ccccn3)CCCNC2)c1 (centres undefined)	> 67.7 nM		inhibition [3]: < 50%
FC(F)(F)c1ccc(CC2(COc3cccnc3)CCCNC2)cc1 (centres undefined)	11.9 nM	17.5%	
Clc1cccc(CC2(COc3ccc(Br)nc3)CCCNC2)c1 (centres undefined)	11.4 nM		
Clc1cccc(CC2(COc3cncc(Br)c3)CCCNC2)c1 (centres undefined)	22.2 nM		
c1ccc(-c2ccc(CC3(COc4cccnc4)CCCNC3)cc2)cc1 (centres undefined)	11.7 nM	7.9%	inhibition [4]: 96.5%; inhibition [5]: 53.4%
Cc1cccc(CC2(COc3cccnc3)CCCNC2)c1 (centres undefined)	12.4 nM	14.8%	
Clc1cccc(CC2(COc3cccnc3)CCCNC2)c1Cl (centres undefined)	6.02 nM	19.5%	
OCCCCC#Cc1ccc(OCC2(Cc3cccc(Cl)c3)CCCNC2)cn1 (centres undefined)	16 nM	8.5%	
O=C(N[C@H]1CN2CCC1CC2)c1cc2cccc(Cl)c2s1 [ENCENICLINE]			EC50 [6]: 390 nM
OCCCC#Cc1ccc(OCC2(Cc3cccc(Cl)c3)CCCNC2)cn1 (centres undefined)	> 67.7 nM		inhibition [3]: < 50%
Clc1ccc(C[C@@]2(COc3cccnc3)CCCNC2)cc1Cl	0.86 nM	33.3%	Activity [7]: inactive; AUC(0-inf) [8]: 1.9 µM·h; blood plasma ratio at 4 h [9]: 5.1; Tmax [10]: 4.8 min; half-life [11]: 72 min; Cmax [12]: 1100 nM; clearance [13]: 129 mL/min/kg; AUC(0-inf) [14]: 0.7 µM·h; Vd [15]: 13.3 L/kg; Emax [2]: 36.1%; Cmax [16]: 1000 nM; bioavailability [17]: 51.2%; half-life [18]: 102 min; Tmax [19]: 30 min; blood plasma ratio at 4 h [20]: 8.8; EC50 [21]: 20400 nM
Clc1ccc(CC2(COc3cccnc3)CCCNC2)cc1Cl (centres undefined)	2.27 nM		
Cc1ccc(-c2ccc(O[C@H]3CN4CCC3CC4)cn2)cc1			EC50 [22]: 39 nM

SMILES	Ki [1]	Efficacy [2]	other results
Clc1ccc(CC2(COc3cccnc3)CCCNC2)cc1 (centres undefined)	9.77 nM	18.2%	
OCCCC#Cc1cncc(OCC2(Cc3cccc(Cl)c3)CCCNC2)c1 (centres undefined)	12.5 nM		
Cc1ccccc1CC1(COc2cccnc2)CCCNC1 (centres undefined)	18.8 nM	12.8%	
Clc1cccc(CC2(COc3cncc(-c4ccccc4)c3)CCCNC2)c1 (centres undefined)	> 67.7 nM		inhibition [3]: < 50%
Clc1cccc(CC2(COc3cncnc3)CCCNC2)c1 (centres undefined)	5.22 nM		
Clc1ccc(C[C@]2(COc3cccnc3)CCCNC2)cc1Cl	26.2 nM	5.5%	Activity [7]: inactive; inhibition [4]: 90.8%; inhibition [5]: 27.2%
Clc1ccc(CC2(COc3cccnc3)CCNCC2)cc1Cl		3.1%	Activity [7]: inactive; inhibition [4]: 94%; inhibition [5]: 27.2%
OCCCCC#Cc1cncc(OCC2(Cc3cccc(Cl)c3)CCCNC2)c1 (centres undefined)	3.47 nM	4.5%	Activity [7]: inactive; inhibition [4]: 97.3%; inhibition [5]: 12.8%
OCCC#Cc1cncc(OCC2(Cc3cccc(Cl)c3)CCCNC2)c1 (centres undefined)	5.57 nM		
Clc1cccc(CC2(COc3ccc4c(c3)[nH]c3ccccc34)CCCNC2)c1 (centres undefined)	> 67.7 nM		inhibition [3]: < 50%
Clc1cccc(CC2(COc3ccc(Cl)nc3)CCCNC2)c1 (centres undefined)	3.39 nM	4.4%	
OCCC#Cc1ccc(OCC2(Cc3cccc(Cl)c3)CCCNC2)cn1 (centres undefined)	29 nM		
Clc1cccc(CC2(COc3cccnc3)CCCNC2)c1 (centres undefined)	5.3 nM	33.8%	
FC(F)(F)c1cccc(CC2(COc3cccnc3)CCCNC2)c1 (centres undefined)	5.93 nM	28%	Activity [7]: inactive
Cc1ccc(CC2(COc3cccnc3)CCCNC2)cc1 (centres undefined)	16.5 nM	13%	
